Measured values reported in patent US12419869B2, “Methods of treating multiple sclerosis” (Vanda Pharmaceuticals Inc., priority 2021, dated 2025).

Tests used:
pregnant rats = experiment: Embryofetal development study in pregnant rats, oral; assay type: in vivo
Source text: Maternal toxicity was not observed, indicating a selective effect on the fetus.

male and female rats = experiment: Fertility studies in male and female rats, oral; assay type: in vivo, rat
Method: Plasma ponesimod exposures (AUC) at the highest dose tested were approximately 10 (males) and 30 (females) times that in humans at the recommended human dose (RHD) of 20 mg/day.

mice, rats, and dogs = details: in vivo
Source text: At the higher doses tested in short-term studies, alveolar histiocytosis was associated with lung edema, emphysema, or hyalinosis, and with bronchioloalveolar hyperplasia after cessation of dosing in rats and alveolar histiocytosis and hyalinosis in dogs. Effects tended to be absent or less severe after chronic treatment. These findings are considered secondary to increased vascular permeability caused by S1P1 receptor modulation.

[1] = test system: Patients (18-55 years) with RMS; experiment: No evidence of disease activity (NEDA-3) status, baseline to week 108; assay type: in vivo, human
Method: Patients (18-55 years) with RMS (expanded disability status scale scores: 0-5.5) were randomized (1:1) to receive ponesimod (PON) 20 mg or teriflunomide (TER) 14 mg for 108 weeks. MRI assessments were: volume of T2 lesions; mean number of new gadolinium-enhancing (Gd+) T1 lesions and new/enlarging T2 lesions; and absence of active MRI lesions at week 108. NEDA-3 status (absence of confirmed relapse, Gd+T1 lesions and new/enlarging T2 lesions on annual MRIs, and 12-week confirmed disability accumulation) was evaluated from baseline to week 108.

mice = experiment: Carcinogenesis, mice, oral up to 2 years; assay type: in vivo, mouse
Method: Plasma exposure (AUC) at to lowest dose tested in males (50 mg/kg/day) was approximately 5 times that in humans at the recommended human dose (RHD) of 20 mg.

[2] = test system: adult subjects with relapsing MS; experiment: Fatigue-related symptoms, FSIQ-RMS weekly symptoms score, change from baseline to Week 108; assay type: in vivo, human
Method: (§1) In some embodiments, the patient-reported outcome questionnaire is the symptom domain of the FSIQ-RMS. The FSIQ-RMS symptom domain (FSIQ-RMS-S) consists of seven items assessing fatigue-related symptoms with a recall period of 24 hours measured on an 11-point numeric rating scale; the standardized symptom domain score ranges from 0 to 100 with a higher score indicating greater fatigue. This domain (i.e., section 1 of the questionnaire) is completed on 7 consecutive days.
The patient-reported outcome questionnaire used for the below Examples is the Fatigue Symptoms and Impact Questionnaire—Relapsing Multiple Sclerosis (FSIQ-RMS). The FSIQ-RMS is an MS specific 20-item PRO measure that comprises 2 domains: one measuring MS symptoms (7 items) and one measuring MS-related impacts (13 items). The 7 symptom items and 13 impact items (in 3 impacts subdomains: physical, cognitive and emotional, and coping) are presented below.
For the MS symptoms domain, the FSIQ-RMS asks about a patient's fatigue-related symptoms of relapsing MS over the past 24 hours while doing routine daily activities (e.g., housework, yard work, shopping, working, etc.) for Items 1-6 or while at rest (e.g., reading a book, watching TV, etc.) for Item 7. Patients are asked to select a response on a scale of 0 to 10 that best describes their experience and are asked to not skip any questions, with no answers being right or wrong.
Secondary efficacy variables and testing strategy: Four secondary efficacy endpoints were analyzed as per the statistical testing strategy outlined in FIG. 1. • Change from baseline to Week 108 in fatigue-related symptoms as measured by the symptoms domain of the FSIQ-RMS patient-reported outcome [Fatigue] • Cumulative number of combined unique active lesions from baseline to Week 108 on brain MRI [CUALs] • Time to first 12-week confirmed disability accumulation (CDA) from baseline to EOS on Expanded Disability Status Scale (EDSS) [12-week CDA] • Time to first 24-week CDA from baseline to EOS on EDSS [24-week CDA]
as §1, with “The” for “In some embodiments, the patient-reported outcome questionnaire is the symptom domain of the FSIQ-RMS. The”
FSIQ-RMS was completed during the pre-randomization period, at Visits 6, 7, 10, and 12 (Weeks 12, 24, 60, 84), 14 (EOT), and at unscheduled visits due to relapses (R1, R2, etc.) or other unscheduled visits (U1, U2, etc.) as described below. If applicable, FSIQ-RMS was performed at the corresponding visits in the PTOP.
After randomization, the symptoms domain of the FSIQ-RMS (i.e., section 1 of the questionnaire) was completed by the subject at home on a daily basis, starting in the evening of the day of a visit when the FSIQ-RMS was administered (Day 1 of questionnaire administration cycle) and during the 6 subsequent days (i.e., over 7 days in total). Subjects returned the completed FSIQ-RMS diary at the next scheduled visit. On the seventh day, the subject completed the impact domain of the FSIQ-RMS (i.e., section 2 of the questionnaire). If applicable, at the end of the PTOP, the FSIQ-RMS was completed prior to Visit 14A (Week 108), ideally, during the 7 consecutive days preceding the visit.

[3] = Week 108, baseline EDSS <3.5 (title: ≤3.5)
[4] = Week 108, baseline fatigue below the median
[5] = Week 108, no Gd+ T1 lesions at baseline
[6] = Week 108, no prior DMT treatment

With `CCC/N=C1\S/C(=C\c2ccc(OC[C@H](O)CO)c(Cl)c2)C(=O)N1c1ccccc1C` [Ponesimod, (R)-5-[3-chloro-4-(2,3-dihydroxy-propoxy)-benz[Z]ylidene]-2-([Z]-propylimino)-3-o-tolyl-thiazolidin-4-one] the “Embryofetal findings in rats” value (pregnant rats; 0, 1, 10, or 40 mg/kg/day oral during organogenesis, at all but the lowest dose) was “increased incidences of fetal malformations”, the “No-effect dose for adverse effects on embryofetal development in rats” value (pregnant rats; rat, in vivo) was 1 mg/kg/day and the “Plasma exposure (AUC) at no-effect dose vs humans at RHD 20 mg/day” value (pregnant rats; rats) was “lower than that in humans”. For the same molecule, the “Effects on fertility in rats” value (male and female rats; 0, 10, 30, or 100 mg/kg/day oral) was “no effects on fertility”, the “Plasma exposure (AUC) at highest dose relative to humans at RHD, females” value (male and female rats; 100 mg/kg/day) was roughly 30 times and the “Plasma exposure (AUC) at highest dose relative to humans at RHD, males” value (male and female rats; 100 mg/kg/day) was “approximately 10 times”. For the same molecule, the “Lung findings in oral toxicity studies” value (mice, rats, and dogs) was “Increases in lung weight and histopathology”, the “Odds ratio PON vs TER for NEDA-3” value [1] was 1.70 and the “Patients achieving NEDA-3” value [1] was 28.2%. For the same molecule, the “Carcinogenicity findings in mice” value (mice; males all doses (50, 150, 400 mg/kg/day), females highest dose (300 mg/kg/day)) was “incidences in hemangiosarcoma and combined hemangioma and hemangiosarcoma”, the “Plasma exposure (AUC) at lowest dose in male mice (50 mg/kg/day) relative to humans at RHD” value (mice; mouse, in vivo) was “approximately 5 times” and the “FSIQ-RMS change from baseline to Week 108, mean difference ponesimod vs teriflunomide” value ([2]; Full Analysis Set) was −3.57. For the same molecule, the “Change from baseline to Week 108 in FSIQ-RMS weekly symptoms score (mean, MMRM)” value ([2]; Full Analysis Set, increase = worsening) was −0.01, the “Change in FSIQ-RMS-S total score: Improved (<−6.3), patients” value ([2]; Week 108, Full Analysis Set) was 30.5% and the “Change in FSIQ-RMS-S total score: Stable (−6.3 < × < +6.3), patients” value ([2]; Week 108, Full Analysis Set) was 38.4%. The “Change in FSIQ-RMS-S total score: Stable or Improved, patients” value ([2]; Week 108, Full Analysis Set) was 68.9%, the “Change in FSIQ-RMS-S total score: Worsened (≥6.3), patients” value ([2]; Week 108, Full Analysis Set) was 31.1% and the “FSIQ-RMS change: Improved (<−6.3), patients” value (from here on “FSIQ-RMS change: Improved”) [2, 3] was 30.6%. The “FSIQ-RMS change: Stable (−6.3 < × < +6.3), patients” value [2, 3] was 40.8%, the “FSIQ-RMS change: Stable or Improved, patients” value [2, 3] was 71.4% and the “FSIQ-RMS change: Worsened (≥6.3), patients” value (shortened to “FSIQ-RMS change: Worsened”) [2, 3] was 28.6%. The “FSIQ-RMS change: Improved” value [2, 4] was 19.1%, the “FSIQ-RMS change: Stable (−6.3 < × < +6.3), patients” value [2, 4] was 45.2% and the “FSIQ-RMS change: Stable or Improved, patients” value [2, 4] was 64.4%. The “FSIQ-RMS change: Worsened” value [2, 4] was 35.6%, the “FSIQ-RMS change: Stable (−6.3 < × < +6.3), patients” value [2, 5] was 37.4% and the “FSIQ-RMS change: Stable or Improved, patients” value [2, 5] was 67.5%. For the same molecule, the “FSIQ-RMS change: Worsened” value [2, 5] was 32.5%, the “FSIQ-RMS change: Improved” value [2, 6] was 31.4% and the “FSIQ-RMS change: Stable (−6.3 < × < +6.3), patients” value [2, 6] was 44.0%. The “FSIQ-RMS change: Stable or Improved, patients” value [2, 6] was 75.4%, the “FSIQ-RMS change: Worsened” value [2, 6] was 24.6% and the “FSIQ-RMS change: Improved” value ([2]; Week 108, no prior DMT treatment, listed as ponesimod) was 31.4%.
